Reference: patent US4122202A, “Amino-3H-isobenzofuranones N-substitutes and their therapeutic application” (Societe Cortial, priority 1975, dated 1978)
Where two headings read alike, the source gives them in different places.

Key:
[1] = Oral toxicity in mice (LDO, LD50); type: in vivo; settings: mouse, in vivo; for LD50 at 336 h: gummy julep (No. 1 and 13 in Tween), 2 weeks observation
Description: (§1) This toxicity is estimated by the calculation of the lethal dose of 50 (LD 50) which determines the fatal dose of the substance for 50% of the animals tested. This determination was effected in accordance with a modification of the method by Litchfield and Wilcoxon (J. Pharmacol. Exp. Therap. 1949, 96, 99-113).
(§2) Swiss mice without specific pathogenic organisms were kept in air conditioned rooms 24 to 48 hours before the start of the tests. They were divided into batches of 5.male. and 5.female.. With the animals unfed for 24 hours, the substances were intragastically administered in suspension in 2% Tween 80 or in 6% gummy julep in a volume equivalent to 0.1 ml per 10 g of the weight of the animal.
(§3) They remained under observation for two weeks before being killed and subjected to an autopsy.
(§4) All products were administered in gummy julep except No. 1 and No. 13 which were administered in Tween. The analgesic activity were determined in mice by utilizing as a nociceptive agent, phenylbenzoquinone (PBQ) (modification of the method by Siegmund and co-workers Proc. Soc. Exp. Biol. Med. 1957, 95, 729-31). The process consists of seeking a possible protection for the mouse vis-a-vis abdominal twisting and stretching of the hind legs induced by the parental injection of PBQ. 25 minutes after having orally administered the products to be tested in suspension in 2% Tween 80 or in 6% gummy julep, the PBQ solution was injected and the mice were observed after 5 minutes during the following 5 minutes. For certain products, AD 50 is presented as a measure of activity.

rats [2] = experiment: Ulcerous activity (modified method of Colot); type: in vivo, female EOPS rats; settings: 250 mg/kg oral daily
Description: Ulcerous activity was determined according to a modification of the method by Colot (Technical notions of general pharmacology, 1972) in the case of femal EOPS rats of approximately 150 g. The animals were left without absolutely any food, while the test products were orally administered on a daily basis in suspension in 2% Tween at a volume of 0.5 ml/100 g. The animals were killed under chloroform and the stomachs were removed. Ulcerous activity was established by means of an index taking into account the degree of ulceration and the percentage of animals effected.
In the table given below, a comparison is shown between the results obtained with niflumic acid and product No. 1.

mice [3] = experiment: Oral toxicity in mice (LDO, LD50); type: in vivo; settings: gummy julep (No. 1 and 13 in Tween), 2 weeks observation
Description: as §1, §2, §3, §4

mice [4] = experiment: Analgesic activity: protection against abdominal twisting induced by phenylbenzoquinone (PBQ); type: in vivo; settings: for ED50: Mus musculus, oral, read-out: AD 50 (the source's name)
Description: as §4, with “activity. […]” for “activity.”

rats [5] = experiment: Anti-inflammatory activity: carragenic test (carragenine-induced edema of the hind leg); type: in vivo, male rats; settings: for ED50: oral
Description: All products were administered in gummy julep except No. 1 and No. 13 which were administered in suspension in Tween. The anti-inflammatory activity was determined by the carragenic test with male rats. Inflammation was induced by the injection of 0.1 ml of a 0.5% suspension of carragenine in a physiological serum into the muscular fasciculus of the metatarsal region of the hind leg of the animal. The substance to be tested was orally administered simultaneously with the carragenine. The edema was measured by phethysmography 1, 2, 3, 4, 5 and 6 hours after the administration of the carragenine.
**50 mg/kg No. 13 which were administered in suspension in Tween.

[6] = Rattus norvegicus, 2H, read-out: ED 50
[7] = Rattus norvegicus, 4H, read-out: ED 50

Compound | LD50 at 336 h [1] | LDO (maximum dose which did not lead to any mortality) (mice [3]) | % activity (mice [4]; 200 mg/kg oral) | % activity (inhibition of edema) (rats [5]; 400 mg/kg oral, 4H) | % activity (inhibition of edema) (rats [5]; 200 mg/kg oral, 4H) | ED50 (mice [4]) | % activity (inhibition of edema) (rats [5]; 150 mg/kg oral, 2H) | % activity (inhibition of edema) (rats [5]; 150 mg/kg oral, 4H) | % activity (inhibition of edema) (rats [5]; 300 mg/kg oral, 2H) | % activity (inhibition of edema) (rats [5]; 300 mg/kg oral, 4H) | other results
O=C1OC(Nc2ccc3c(c2)OCO3)c2ccccc21 (stereo not drawn) [Product 1] | ~2600 mg/kg |  |  |  |  |  |  |  |  |  | IA: Acute ulceration index (rats [2]; 1 day): 0; IC: Ulceration index on the way of cicatrization (rats [2]; 1 day): 1.5; IA: Acute ulceration index (rats [2]; 3 days): 5; IC: Ulceration index on the way of cicatrization (rats [2]; 3 days): 22
CCC1(CC)Oc2ccc(NC3OC(=O)c4ccccc43)cc2O1 (stereo not drawn) [Product 2] | ~2000 mg/kg | ~ 1500 mg/kg | 29% | 20% |  |  |  |  |  |  | 
O=C1OC(Nc2ccc3c(c2)OC2(CCCCC2)O3)c2ccccc21 (stereo not drawn) [Product 3] | ≥ 2000 mg/kg | 1000 to 2000 mg/kg | 29% | 21% | 20% |  |  |  |  |  | 
CCCC1(CCC)Oc2ccc(NC3OC(=O)c4ccccc43)cc2O1 (stereo not drawn) [Product 4] | ~2000 mg/kg |  | 20% | 13% | 23% |  |  |  |  |  | 
CCCCC1(C)Oc2ccc(NC3OC(=O)c4ccccc43)cc2O1 (stereo not drawn) [Product 5] | > 2000 mg/kg | > 2000 mg/kg | 42% | 17% | 28% | 270 mg/kg |  |  |  |  | 
CCCC1(CC)Oc2ccc(NC3OC(=O)c4ccccc43)cc2O1 (stereo not drawn) [Product 6] | ≥ 2000 mg/kg | 1000 to 2000 mg/kg | 25% | 3% | 22% | 420 mg/kg |  |  |  |  | 
CC1(C)Oc2ccc(NC3OC(=O)c4ccccc43)cc2O1 (stereo not drawn) [Product 7] |  | ~ 1000 mg/kg | 81% | 25% | 20% | 80 mg/kg |  |  |  |  | mortality at 336 h ([1]; at 2000 mg/kg, read-out: deaths (LD50 column)): 70%; % activity (inhibition of edema) (rats [5]; 200 mg/kg oral, 2H): 19%; % activity (inhibition of edema) (rats [5]; 400 mg/kg oral, 2H): 23%
COc1ccc2c(c1OC)C(=O)OC2Nc1ccc2c(c1)OCO2 (stereo not drawn) [Product 8] | ~1000 mg/kg | 750 to 1000 mg/kg | 54% | 48% | 66% | 180 mg/kg |  |  |  |  | % activity (inhibition of edema) (rats [5]; 200 mg/kg oral, 2H): 68%; % activity (inhibition of edema) (rats [5]; 400 mg/kg oral, 2H): 74%; ED50 (rats [5]; [6]): 180 mg/kg; ED50 (rats [5]; [7]): 230 mg/kg
Cc1cc2c(cc1NC1OC(=O)c3ccccc31)OCO2 (stereo not drawn) [Product 9] | > 2000 mg/kg | 1000 to 2000 mg/kg |  | 60% | 39% | 70 mg/kg |  |  |  |  | % activity (mice [4]; 100 mg/kg oral): 83%; % activity (inhibition of edema) (rats [5]; 200 mg/kg oral, 2H): 29%; % activity (inhibition of edema) (rats [5]; 400 mg/kg oral, 2H): 71%; ED50 (rats [5]; [6]): 220 mg/kg; ED50 (rats [5]; [7]): 240 mg/kg
CCN(c1ccc2c(c1)OCO2)C1OC(=O)c2ccccc21 (stereo not drawn) [Product 12] | ~590 mg/kg |  |  |  |  | 45 mg/kg |  |  |  |  | % activity (mice [4]; 50 mg/kg oral): 61%; % activity (inhibition of edema) (rats [5]; 25 mg/kg (footnote *) oral, 2H): 33%; % activity (inhibition of edema) (rats [5]; 25 mg/kg (footnote *) oral, 4H): 17%; % activity (inhibition of edema) (rats [5]; 50 mg/kg oral, 2H): 43%; % activity (inhibition of edema) (rats [5]; 50 mg/kg oral, 4H): 28%
O=C1OC(Nc2ccc3c(c2)OCCO3)c2ccccc21 (stereo not drawn) [Product 13] | ≥ 3000 mg/kg | ≥ 1000 mg/kg |  |  |  | 100 mg/kg | 77% | 50% | 76% | 55% | % activity (mice [4]; 150 mg/kg oral): 73%; ED50 (rats [5]; [6]): 230 mg/kg; ED50 (rats [5]; [7]): 210 mg/kg
COc1ccc2c(c1OC)C(=O)OC2Nc1ccc2c(c1)OCCO2 (stereo not drawn) [Product 14] |  | > 2000 mg/kg | 73% | 63% | 33% | 150 mg/kg |  |  |  |  | % activity (inhibition of edema) (rats [5]; 200 mg/kg oral, 2H): 63%; % activity (inhibition of edema) (rats [5]; 400 mg/kg oral, 2H): 79%; ED50 (rats [5]; [6]): 175 mg/kg; ED50 (rats [5]; [7]): 260 mg/kg
O=C(O)c1cc2c(cc1NC1OC(=O)c3ccccc31)OCO2 (stereo not drawn) [Product 15] |  | > 2000 mg/kg | 26% |  |  |  | 15% | 21% | 15% | 4% | 
COC(=O)c1cc2c(cc1NC1OC(=O)c3ccccc31)OCO2 (stereo not drawn) [Product 16] |  | > 2000 mg/kg |  |  |  |  | 12% | 10% |  |  | % activity (mice [4]; 100 mg/kg oral): 33%
O=C1OC(Nc2ccc3c(c2)OCC(CO)O3)c2ccccc21 (stereo not drawn) [Product 17] |  | > 2000 mg/kg | 28% |  |  | 420 mg/kg | 27% | 17% | 29% | 8% | 
O=C1OC(Nc2ccc3c(c2)OC(CO)CO3)c2ccccc21 (stereo not drawn) [Product 18] |  | > 2000 mg/kg | 44% |  |  | 260 mg/kg | 16% | 6% | 22% | 0% | 
CC(=O)OCC1COc2ccc(NC3OC(=O)c4ccccc43)cc2O1 (stereo not drawn) [Product 19] |  | > 2000 mg/kg |  |  |  | 500 mg/kg | 21% | 23% | 26% | 27% | % activity (mice [4]; 300 mg/kg oral): 21%
CC(=O)OCC1COc2cc(NC3OC(=O)c4ccccc43)ccc2O1 (stereo not drawn) [Product 20] |  | > 2000 mg/kg | 13% |  |  | 550 mg/kg | 16% | 3% | 10% | 13% | 
O=C1OC(Nc2ccc3c(c2)COCO3)c2ccccc21 (stereo not drawn) [Product 21] |  | > 2000 mg/kg | 61% |  |  | 275 mg/kg |  |  | 44% | 43% | ED50 (rats [5]; [6]): 400 mg/kg; ED50 (rats [5]; [7]): 500 mg/kg
Cc1cc(NC2OC(=O)c3ccccc32)c(C)c2c1OCOC2 (stereo not drawn) [Product 22] |  | > 2000 mg/kg | 38% |  |  | 260 mg/kg | 35% | 31% |  |  | 
N(2,2-dimethyl benzodioxol-1,3 yl-5) 3-amino 3H-isobenzofuranone-1 [Product 7] |  |  | 86% | 68% |  |  | 68% | 43% |  |  | % activity (inhibition of edema) (rats [5]; 400 mg/kg oral, 2H): 72%; ED50 (rats [5]; 2H): 75 mg/kg; ED50 (rats [5]; 4H): 220 mg/kg
